In the first test the target is human PAD4 (Homo sapiens (Human), UniProt Q9UM07). The test is described as follows: In Vitro PAD4 BAEE Biochemical Assay. The note with it: human PAD4, BAEE substrate; 5 nM PAD4, 2 mM calcium chloride, 3 mM BAEE; geometric mean of multiple experiments. The gist of the method: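 Recombinant human PAD4 (His-SUMO tag removed, E. coli-expressed), 5 nM, preincubated with compound and 2 mM CaCl2 30 min at 25 °C in MOPS pH 7.6 with DTT; 3 mM BAEE added for 2 h at 25 °C, EDTA stop. Released ammonia detected by o-phthalaldehyde/DTT fluorescence (ex 405, em 535 nm).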
human PAD4, sequence (Q9UM07 2-663): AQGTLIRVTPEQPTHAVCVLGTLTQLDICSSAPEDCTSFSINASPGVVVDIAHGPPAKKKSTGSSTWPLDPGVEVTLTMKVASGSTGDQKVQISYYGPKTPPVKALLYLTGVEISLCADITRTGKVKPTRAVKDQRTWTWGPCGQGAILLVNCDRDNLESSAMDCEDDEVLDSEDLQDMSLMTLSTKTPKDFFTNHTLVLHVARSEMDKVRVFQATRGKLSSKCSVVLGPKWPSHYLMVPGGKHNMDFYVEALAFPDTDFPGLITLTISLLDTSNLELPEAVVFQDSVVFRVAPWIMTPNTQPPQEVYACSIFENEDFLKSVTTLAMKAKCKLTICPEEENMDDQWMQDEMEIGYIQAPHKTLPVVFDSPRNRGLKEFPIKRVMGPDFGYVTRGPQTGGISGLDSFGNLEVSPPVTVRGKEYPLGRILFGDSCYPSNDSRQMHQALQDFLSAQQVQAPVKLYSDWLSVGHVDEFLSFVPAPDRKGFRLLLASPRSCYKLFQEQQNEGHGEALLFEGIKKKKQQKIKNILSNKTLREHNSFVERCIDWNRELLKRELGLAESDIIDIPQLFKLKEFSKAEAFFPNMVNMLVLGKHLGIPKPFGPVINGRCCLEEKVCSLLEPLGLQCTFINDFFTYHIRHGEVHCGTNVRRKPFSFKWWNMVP
Turning to `COc1nccc(-c2ccccc2)c1-c1ccc2cc(-c3nc4cc(C(=O)N5C[C@H](N)CC[C@@H]5C)cc(OC)c4n3C)n(CC3CC3)c2n1` [Example 277, ((2S,5R)-5-amino-2-methylpiperidin-1-yl)(2-(1-(cyclopropylmethyl)-6-(2-methoxy-4-phenylpyridin-3-yl)-1H-pyrrolo[2,3-b]pyridin-2-yl)-7-methoxy-1-methyl-1H-benzo[d]imidazol-5-yl)methanone], the 50% inhibitory concentration (IC50) was found to be 3430 nM.

For the compound `COc1cc(C(=O)N2CCC[C@@H](N)C2)cc2nc(-c3cc4ccc(NC(C)(C)C)nc4n3CC3CC3)n(C)c12` [Example 278, (R)-(3-aminopiperidin-1-yl)(2-(6-(tert-butylamino)-1-(cyclopropylmethyl)-1H-pyrrolo[2,3-b]pyridin-2-yl)-7-methoxy-1-methyl-1H-benzo[d]imidazol-5-yl)methanone], the IC50 is 9340 nM.

Turning to `COc1cc(C(=O)N2C[C@H](N)CC[C@@H]2C)cc2nc(-c3cc4ccc(N5CCCC5=O)nc4n3CC3CC3)n(C)c12` [Example 279, 1-(2-(5-((2S,5R)-5-amino-2-methylpiperidine-1-carbonyl)-7-methoxy-1-methyl-1H-benzo[d]imidazol-2-yl)-1-(cyclopropylmethyl)-1H-pyrrolo[2,3-b]pyridin-6-yl)pyrrolidin-2-one], the IC50 came to 1180 nM.

On to `COc1cc(C(=O)N2C[C@H](N)CC[C@@H]2C)cc2nc(-c3cc4ccc(N5C(=O)CCC5C)nc4n3CC3CC3)n(C)c12` (stereo partly drawn) [Example 280, 1-(2-(5-((2S,5R)-5-amino-2-methylpiperidine-1-carbonyl)-7-methoxy-1-methyl-1H-benzo[d]imidazol-2-yl)-1-(cyclopropylmethyl)-1H-pyrrolo[2,3-b]pyridin-6-yl)-5-methylpyrrolidin-2-one], for which the IC50 was determined as 531 nM.

On to `COc1cc(C(=O)N2C[C@H](N)CC[C@@H]2C)cc2nc(-c3cc4ccc(N5C(=O)CCCC5C)nc4n3CC3CC3)n(C)c12` (stereo partly drawn) [Example 281, 1-(2-(5-((2S,5R)-5-amino-2-methylpiperidine-1-carbonyl)-7-methoxy-1-methyl-1H-benzo[d]imidazol-2-yl)-1-(cyclopropylmethyl)-1H-pyrrolo[2,3-b]pyridin-6-yl)-6-methylpiperidin-2-one], for which the half-inhibitory concentration (IC50) was determined as 643 nM.

In the case of `COc1cc(C(=O)N2C[C@H](N)CC[C@@H]2C)cc2nc(-c3cc4ccc(-n5c(C)cccc5=O)nc4n3CC3CC3)n(C)c12` [Example 282, 1-(2-(5-((2S,5R)-5-amino-2-methylpiperidine-1-carbonyl)-7-methoxy-1-methyl-1H-benzo[d]imidazol-2-yl)-1-(cyclopropylmethyl)-1H-pyrrolo[2,3-b]pyridin-6-yl)-6-methylpyridin-2(1H)-one], the IC50 was found to be 146 nM.

`COc1cc(C(=O)N2C[C@H](N)CC[C@@H]2C)cc2nc(-c3cc4ccc(-c5cccnc5-c5ccccc5)nc4n3CC3CC3)n(C)c12` [Example 283, ((2S,5R)-5-amino-2-methylpiperidin-1-yl)(2-(1-(cyclopropylmethyl)-6-(2-phenylpyridin-3-yl)-1H-pyrrolo[2,3-b]pyridin-2-yl)-7-methoxy-1-methyl-1H-benzo[d]imidazol-5-yl)methanone]: the IC50 was 320 nM.

On to `COc1cc(C(=O)N2C[C@H](N)CC[C@@H]2C)cc2nc(-c3cc4ccc(N5C(=O)CC[C@@H]5C)nc4n3CC3CC3)n(C)c12` [Example 285, (S)-1-(2-(5-((2S,5R)-5-amino-2-methylpiperidine-1-carbonyl)-7-methoxy-1-methyl-1H-benzo[d]imidazol-2-yl)-1-(cyclopropylmethyl)-1H-pyrrolo[2,3-b]pyridin-6-yl)-5-methylpyrrolidin-2-one], for which the 50% inhibitory concentration (IC50) was 322 nM.

The test is the same for the next values; noted with them: recombinant PAD4 5 nM, 2 mM calcium chloride, 3 mM BAEE substrate; geometric mean of multiple experiments.
`COC(=O)N(C)c1ccc2cc(-c3nc4cc(C(=O)N5C[C@H](N)[C@@H]6CC[C@H]5C6)cc(OC)c4n3C)n(CC3CC3)c2n1` [Example 287, methyl (2-(5-((1S,4R,5R)-4-amino-2-azabicyclo[3.2.1]octane-2-carbonyl)-7-methoxy-1-methyl-1H-benzo[d]imidazol-2-yl)-1-(cyclopropylmethyl)-1H-pyrrolo[2,3-b]pyridin-6-yl)(methyl)carbamate]: the half-maximal inhibitory concentration (IC50) came to 106 nM.

In the case of `COc1cc(C(=O)N2C[C@H](N)[C@@H]3CC[C@H]2C3)cc2nc(-c3cc4ccc([C@@H](C)NC(=O)[C@@H]5C[C@H]5F)nc4n3CC3CC3)n(C)c12` [Example 288, (1S,2R)-N-((R)-1-(2-(5-((1S,4R,5R)-4-amino-2-azabicyclo[3.2.1]octane-2-carbonyl)-7-methoxy-1-methyl-1H-benzo[d]imidazol-2-yl)-1-(cyclopropylmethyl)-1H-pyrrolo[2,3-b]pyridin-6-yl)ethyl)-2-fluorocyclopropane-1-carboxamide], the IC50 is 70.8 nM.

For `COc1cc(C(=O)N2C[C@H](N)[C@@H]3CC[C@H]2C3)cc2nc(-c3cc4ccc([C@@H](C)NC(=O)C5(C(F)(F)F)CC5)nc4n3CC3CC3)n(C)c12` [Example 289, N-((R)-1-(2-(5-((1S,4R,5R)-4-amino-2-azabicyclo[3.2.1]octane-2-carbonyl)-7-methoxy-1-methyl-1H-benzo[d]imidazol-2-yl)-1-(cyclopropylmethyl)-1H-pyrrolo[2,3-b]pyridin-6-yl)ethyl)-1-(trifluoromethyl) cyclopropane-1-carboxamide], the IC50 turned out to be 174 nM.

Regarding `COc1cc(C(=O)N2C[C@H](N)[C@@H]3CC[C@H]2C3)cc2nc(-c3cc4ccc([C@@H](C)NC(=O)C56CC(C5)C6)nc4n3CC3CC3)n(C)c12` [Example 290, N-((R)-1-(2-(5-((1S,4R,5R)-4-amino-2-azabicyclo[3.2.1]octane-2-carbonyl)-7-methoxy-1-methyl-1H-benzo[d]imidazol-2-yl)-1-(cyclopropylmethyl)-1H-pyrrolo[2,3-b]pyridin-6-yl)ethyl)bicyclo[1.1.1] pentane-1-carboxamide], the concentration for half-maximal inhibition (IC50) turned out to be 79.2 nM.

With `COc1cc(C(=O)N2C[C@H](N)[C@@H]3CC[C@H]2C3)cc2nc(-c3cc4ccc([C@@H](C)NC(=O)C56CC(F)(C5)C6)nc4n3CC3(F)CC3)n(C)c12` [Example 291, N-((R)-1-(2-(5-((1S,4R,5R)-4-amino-2-azabicyclo[3.2.1]octane-2-carbonyl)-7-methoxy-1-methyl-1H-benzo[d]imidazol-2-yl)-1-((1-fluorocyclopropyl)methyl)-1H-pyrrolo[2,3-b]pyridin-6-yl)ethyl)-3-fluorobicyclo[1.1.1] pentane-1-carboxamide], the IC50 amounted to 91.9 nM.

Turning to `COc1cc(C(=O)N2C[C@H](N)[C@@H]3CC[C@H]2C3)cc2nc(-c3cc4ccc([C@@H](C)NC(=O)c5ccccc5C(F)(F)F)nc4n3CC3CC3)n(C)c12` [Example 292, N-((R)-1-(2-(5-((1S,4R,5R)-4-amino-2-azabicyclo [3.2.1]octane-2-carbonyl)-7-methoxy-1-methyl-1H-benzo [d]imidazol-2-yl)-1-(cyclopropylmethyl)-1H-pyrrolo[2,3-b]pyridin-6-yl)ethyl)-2-(trifluoromethyl) benzamide], the IC50 turned out to be 128 nM.

In the case of `COc1cc(C(=O)N2C[C@H](N)[C@@H]3CC[C@H]2C3)cc2nc(-c3cc4ccc([C@@H](C)NC(=O)c5ccccc5Cl)nc4n3CC3CC3)n(C)c12` [Example 293, N-((R)-1-(2-(5-((1S,4R,5R)-4-amino-2-azabicyclo [3.2.1]octane-2-carbonyl)-7-methoxy-1-methyl-1H-benzo[d]imidazol-2-yl)-1-(cyclopropylmethyl)-1H-pyrrolo[2,3-b]pyridin-6-yl)ethyl)-2-chlorobenzamide], the IC50 came to 80.7 nM.

As for `COc1cc(C(=O)N2C[C@H](N)[C@@H]3CC[C@H]2C3)cc2nc(-c3cc4ccc([C@@H](C)NC(=O)c5ccccc5OC(F)(F)F)nc4n3CC3CC3)n(C)c12` [Example 294, N-((R)-1-(2-(5-((1S,4R,5R)-4-amino-2-azabicyclo [3.2.1]octane-2-carbonyl)-7-methoxy-1-methyl-1H-benzo[d]imidazol-2-yl)-1-(cyclopropylmethyl)-1H-pyrrolo[2,3-b]pyridin-6-yl)ethyl)-2-(trifluoromethoxy)benzamide], the half-maximal inhibitory concentration (IC50) was 277 nM.

Turning to `COc1cc(C(=O)N2C[C@H](N)[C@@H]3CC[C@H]2C3)cc2nc(-c3cc4ccc([C@@H](C)NC(=O)c5c(F)cccc5F)nc4n3CC3CC3)n(C)c12` [Example 295, N-((R)-1-(2-(5-((1S,4R,5R)-4-amino-2-azabicyclo[3.2.1]octane-2-carbonyl)-7-methoxy-1-methyl-1H-benzo[d]imidazol-2-yl)-1-(cyclopropylmethyl)-1H-pyrrolo[2,3-b]pyridin-6-yl)ethyl)-2,6-difluorobenzamide], the IC50 turned out to be 65.5 nM.

Turning to `COc1cc(C(=O)N2C[C@H](N)[C@@H]3CC[C@H]2C3)cc2nc(-c3cc4ccc([C@@H](C)NC(=O)c5ccnc(C(F)F)c5)nc4n3CC3CC3)n(C)c12` [Example 296, N-((R)-1-(2-(5-((1S,4R,5R)-4-amino-2-azabicyclo[3.2.1]octane-2-carbonyl)-7-methoxy-1-methyl-1H-benzo[d]imidazol-2-yl)-1-(cyclopropylmethyl)-1H-pyrrolo[2,3-b]pyridin-6-yl)ethyl)-2-(difluoromethyl)isonicotinamide], the 50% inhibitory concentration (IC50) was determined as 74.1 nM.

Regarding `COc1cc(C(=O)N2C[C@H](N)[C@@H]3CC[C@H]2C3)cc2nc(-c3cc4ccc([C@@H](C)NC(=O)c5ccc(C(F)F)nc5)nc4n3CC3CC3)n(C)c12` [Example 297, N-((R)-1-(2-(5-((1S,4R,5R)-4-amino-2-azabicyclo[3.2.1]octane-2-carbonyl)-7-methoxy-1-methyl-1H-benzo[d]imidazol-2-yl)-1-(cyclopropylmethyl)-1H-pyrrolo[2,3-b]pyridin-6-yl)ethyl)-6-(difluoromethyl)nicotinamide], the IC50 is 65.9 nM.

These data come from patent publication US11878965B2, “Inhibitors of peptidylarginine deiminases” (Gilead Sciences, Inc., priority 2020, dated 2024).
